# According to ChEMBL document CHEMBL4616615, “Screening for tyrosinase inhibitors from actinomycetes; identification of trichostatin derivatives from Streptomyces sp. CA-129531 and scale up production in bioreactor” (Bioorg Med Chem Lett, 2020):
# pIC50: −log10 of the molar value.
# Assays:
# [1] = target: T1, Mushroom tyrosinase (Agaricus bisporus, UniProt O42713+Q00024+C7FF04+C7FF05); test: Inhibition of mushroom tyrosinase using L-DOPA as substrate
# [2] = system: A2058; test: Cytotoxicity against human A2058 cells assessed as reduction in cell viability; assay type: cell-based
# [3] = system: HepG2; test: cells; details: Homo sapiens
# Description: Cytotoxicity against human HepG2 cells assessed as reduction in cell viability
# [4] = system: A549; test: cells; details: Homo sapiens
# Description: Cytotoxicity against human A549 cells assessed as reduction in cell viability
# [5] = system: MCF7; test: cells; details: Homo sapiens
# [6] = system: MIA PaCa-2; test: cells; details: Homo sapiens
# Description: Cytotoxicity against human MIAPaCa2 cells assessed as reduction in cell viability
# [7] = target: T1, Mushroom tyrosinase; test: Mixed-type of inhibition of mushroom tyrosinase using varying level of L-DOPA as substrate by Dixon plot analysis
SMILES,IC50 [1] [µM],pIC50 [3],pIC50 [4],pIC50 [5],pIC50 [6],Ki [7] [µM],pIC50 [2]
CNC(=O)/C=C/C(C)=C/[C@@H](C)C(=O)c1ccc(N(C)C)cc1,161.18,4.88,< 4.30,4.73,4.44,,< 4.30
CC(/C=C/C(=O)NO[C@@H]1O[C@H](CO)[C@@H](O)[C@H](O)[C@H]1O)=C\[C@@H](C)C(=O)c1ccc(N(C)C)cc1,174.33,4.75,4.60,4.72,4.42,,4.43
CC(/C=C/C(=O)O)=C\[C@@](C)(O)C(=O)c1ccc(N(C)C)cc1,,< 4.30,< 4.30,< 4.30,< 4.30,,< 4.30
CC(/C=C/C(=O)O)=C\[C@H](C)C(=O)c1ccc(N(C)C)cc1,,< 4.30,< 4.30,< 4.30,< 4.30,,< 4.30
CC(/C=C/C(=O)N[C@@H](CCC(N)=O)C(=O)O)=C\[C@@H](C)C(=O)c1ccc(N(C)C)cc1,,< 4.30,< 4.30,< 4.30,< 4.30,,< 4.30

# These reach a higher pIC50 [3]. Values come first.
IC50 [1] [µM],pIC50 [3],pIC50 [4],pIC50 [5],pIC50 [6],Ki [7] [µM],SMILES,pIC50 [2]
19.18,5.50,5.08,5.56,5.02,,CC(/C=C/C(N)=O)=C\[C@@H](C)C(=O)c1ccc(N(C)C)cc1,6.19
,> 6.96,5.42,,5.99,,COc1cccc2c1C(=O)c1c(O)c3c(c(O)c1C2=O)C[C@@](O)(C(=O)CO)C[C@@H]3O[C@H]1C[C@H](N)[C@H](O)[C@H](C)O1 [DOXORUBICIN],> 6.96
2.18,6.42,5.88,6.52,6.05,6.1,CC(/C=C/C(=O)NO)=C\[C@@H](C)C(=O)c1ccc(N(C)C)cc1 [TRICHOSTATIN],6.37
